Results taken from PubChem BioAssay (NCI).
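Grown in 96-well plates, cells were treated for 48 hours with each compound at five concentrations. Insufficient inhibition: endpoint recorded as highest concentration tested. GI50 marks 50% less growth. TGI denotes the concentration required for complete inhibition of growth.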

Columns and labels:
Assay in all cases: inhibition of tumour cell growth, NCI panel, 48 h
TK-10 renal = test system: TK-10 renal
COLO 205 colon = test system: COLO 205 colon
MDA-MB-231 breast = test system: MDA-MB-231 breast
786-0 renal = test system: 786-0 renal
PC-3 prostate = test system: PC-3 prostate
HCT-116 colon = test system: HCT-116 colon
HT29 colon = test system: HT29 colon
SF-539 CNS = test system: SF-539 CNS
HCT-15 colon = test system: HCT-15 colon
UACC-257 melanoma = test system: UACC-257 melanoma
HOP-92 NSCLC = test system: HOP-92 NSCLC
SK-OV-3 ovarian = test system: SK-OV-3 ovarian
DU-145 prostate = test system: DU-145 prostate
SK-MEL-28 melanoma = test system: SK-MEL-28 melanoma
M14 melanoma = test system: M14 melanoma
HL-60(TB) leukemia = test system: HL-60(TB) leukemia
RPMI-8226 leukemia = test system: RPMI-8226 leukemia
SN12C renal = test system: SN12C renal
T-47D breast = test system: T-47D breast
UO-31 renal = test system: UO-31 renal
ACHN renal = test system: ACHN renal
SNB-75 CNS = test system: SNB-75 CNS
SK-MEL-5 melanoma = test system: SK-MEL-5 melanoma
IGROV1 ovarian = test system: IGROV1 ovarian
SF-295 CNS = test system: SF-295 CNS
A549 NSCLC = test system: A549 NSCLC
RXF 393 renal = test system: RXF 393 renal
UACC-62 melanoma = test system: UACC-62 melanoma
A498 renal = test system: A498 renal
OVCAR-5 ovarian = test system: OVCAR-5 ovarian
CAKI-1 renal = test system: CAKI-1 renal
NCI/ADR-RES ovarian = test system: NCI/ADR-RES ovarian
BT-549 breast = test system: BT-549 breast
EKVX NSCLC = test system: EKVX NSCLC
OVCAR-8 ovarian = test system: OVCAR-8 ovarian
SR leukemia = test system: SR leukemia
LOX IMVI melanoma = test system: LOX IMVI melanoma
MDA-MB-435 = test system: MDA-MB-435
OVCAR-4 ovarian = test system: OVCAR-4 ovarian
NCI-H23 lung = test system: NCI-H23 lung
MCF7 breast = test system: MCF7 breast
KM12 colon = test system: KM12 colon
NCI-H226 lung = test system: NCI-H226 lung
SNB-19 CNS = test system: SNB-19 CNS
HCC-2998 colon = test system: HCC-2998 colon
MALME-3M melanoma = test system: MALME-3M melanoma
CCRF-CEM leukemia = test system: CCRF-CEM leukemia
NCI-H522 lung = test system: NCI-H522 lung
MOLT-4 leukemia = test system: MOLT-4 leukemia
U251 CNS = test system: U251 CNS
NCI-H460 lung = test system: NCI-H460 lung
K-562 leukemia = test system: K-562 leukemia
SF-268 CNS = test system: SF-268 CNS
HOP-62 NSCLC = test system: HOP-62 NSCLC
SK-MEL-2 melanoma = test system: SK-MEL-2 melanoma
OVCAR-3 ovarian = test system: OVCAR-3 ovarian

Structure (SMILES): CCCCCCCCCCCCC[N+](C)(C)Cc1ccccc1
- GI50 (TK-10 renal): 871 nM
- TGI (TK-10 renal): 2210 nM
- GI50 (COLO 205 colon): 1140 nM
- TGI (COLO 205 colon): 2450 nM
- GI50 (MDA-MB-231 breast): 1350 nM
- TGI (MDA-MB-231 breast): 2900 nM
- GI50 (786-0 renal): 1560 nM
- TGI (786-0 renal): 3070 nM
- GI50 (PC-3 prostate): 306 nM
- TGI (PC-3 prostate): 1400 nM
- GI50 (HCT-116 colon): 925 nM
- TGI (HCT-116 colon): 2140 nM
- GI50 (HT29 colon): 493 nM
- TGI (HT29 colon): 1930 nM
- GI50 (SF-539 CNS): 1450 nM
- TGI (SF-539 CNS): 2970 nM
- GI50 (HCT-15 colon): 5080 nM
- TGI (HCT-15 colon): 25400 nM
- GI50 (UACC-257 melanoma): 1360 nM
- TGI (UACC-257 melanoma): 2850 nM
- GI50 (HOP-92 NSCLC): 338 nM
- TGI (HOP-92 NSCLC): 1830 nM
- GI50 (SK-OV-3 ovarian): 1310 nM
- TGI (SK-OV-3 ovarian): 2600 nM
- GI50 (DU-145 prostate): 1420 nM
- TGI (DU-145 prostate): 2740 nM
- GI50 (SK-MEL-28 melanoma): 1520 nM
- TGI (SK-MEL-28 melanoma): 2890 nM
- GI50 (M14 melanoma): 1040 nM
- TGI (M14 melanoma): 2400 nM
- GI50 (HL-60(TB) leukemia): 680 nM
- TGI (HL-60(TB) leukemia): 2150 nM
- GI50 (RPMI-8226 leukemia): 451 nM
- TGI (RPMI-8226 leukemia): 2520 nM
- GI50 (SN12C renal): 1200 nM
- TGI (SN12C renal): 2610 nM
- GI50 (T-47D breast): 336 nM
- TGI (T-47D breast): 1710 nM
- GI50 (UO-31 renal): 2050 nM
- TGI (UO-31 renal): 6420 nM
- GI50 (ACHN renal): 3410 nM
- TGI (ACHN renal): 12800 nM
- GI50 (SNB-75 CNS): 1500 nM
- TGI (SNB-75 CNS): 2970 nM
- GI50 (SK-MEL-5 melanoma): 874 nM
- TGI (SK-MEL-5 melanoma): 2110 nM
- GI50 (IGROV1 ovarian): 477 nM
- TGI (IGROV1 ovarian): 1820 nM
- GI50 (SF-295 CNS): 1420 nM
- TGI (SF-295 CNS): 2870 nM
- GI50 (A549 NSCLC): 1610 nM
- TGI (A549 NSCLC): 3170 nM
- GI50 (RXF 393 renal): 385 nM
- TGI (RXF 393 renal): 1600 nM
- GI50 (UACC-62 melanoma): 633 nM
- TGI (UACC-62 melanoma): 1950 nM
- GI50 (A498 renal): 1440 nM
- TGI (A498 renal): 5010 nM
- GI50 (OVCAR-5 ovarian): 1470 nM
- TGI (OVCAR-5 ovarian): 2920 nM
- GI50 (CAKI-1 renal): 4990 nM
- TGI (CAKI-1 renal): 23000 nM
- GI50 (NCI/ADR-RES ovarian): 18000 nM
- TGI (NCI/ADR-RES ovarian): 50500 nM
- GI50 (BT-549 breast): 1130 nM
- TGI (BT-549 breast): 2420 nM
- GI50 (EKVX NSCLC): 1570 nM
- TGI (EKVX NSCLC): 4520 nM

Structure (SMILES): COc1cc(C(=O)/C=C/c2c(-c3cccs3)nc3sc(C)cn23)cc(OC)c1OC
- GI50 (TK-10 renal): 6160 nM
- TGI (TK-10 renal): > 100000 nM
- GI50 (OVCAR-8 ovarian): 1210 nM
- TGI (OVCAR-8 ovarian): 8310 nM
- GI50 (COLO 205 colon): 4010 nM
- TGI (COLO 205 colon): > 100000 nM
- GI50 (MDA-MB-231 breast): 2960 nM
- TGI (MDA-MB-231 breast): 31100 nM
- GI50 (SR leukemia): 1120 nM
- TGI (SR leukemia): 5460 nM
- GI50 (786-0 renal): 3700 nM
- TGI (786-0 renal): 38200 nM
- GI50 (PC-3 prostate): 2800 nM
- TGI (PC-3 prostate): > 100000 nM
- GI50 (HCT-116 colon): 3800 nM
- TGI (HCT-116 colon): > 100000 nM
- GI50 (HT29 colon): 3910 nM
- TGI (HT29 colon): > 100000 nM
- GI50 (SF-539 CNS): 2120 nM
- TGI (SF-539 CNS): 5170 nM
- GI50 (LOX IMVI melanoma): 3840 nM
- TGI (LOX IMVI melanoma): > 100000 nM
- GI50 (HCT-15 colon): 3380 nM
- TGI (HCT-15 colon): > 100000 nM
- GI50 (UACC-257 melanoma): 3860 nM
- TGI (UACC-257 melanoma): 66000 nM
- GI50 (MDA-MB-435): 2680 nM
- TGI (MDA-MB-435): 31600 nM
- GI50 (OVCAR-4 ovarian): 2850 nM
- TGI (OVCAR-4 ovarian): 22300 nM
- GI50 (HOP-92 NSCLC): 470 nM
- TGI (HOP-92 NSCLC): 4930 nM
- GI50 (NCI-H23 lung): 4970 nM
- TGI (NCI-H23 lung): > 100000 nM
- GI50 (SK-OV-3 ovarian): 3370 nM
- TGI (SK-OV-3 ovarian): 10400 nM
- GI50 (DU-145 prostate): 2990 nM
- TGI (DU-145 prostate): 14000 nM
- GI50 (MCF7 breast): 2350 nM
- TGI (MCF7 breast): 20500 nM
- GI50 (M14 melanoma): 5590 nM
- TGI (M14 melanoma): > 100000 nM
- GI50 (KM12 colon): 2830 nM
- TGI (KM12 colon): > 100000 nM
- GI50 (HL-60(TB) leukemia): 2690 nM
- TGI (HL-60(TB) leukemia): > 100000 nM
- GI50 (RPMI-8226 leukemia): 1670 nM
- TGI (RPMI-8226 leukemia): 15600 nM
- GI50 (SN12C renal): 5290 nM
- TGI (SN12C renal): > 100000 nM
- GI50 (T-47D breast): 1770 nM
- TGI (T-47D breast): 7650 nM
- GI50 (NCI-H226 lung): 4600 nM
- TGI (NCI-H226 lung): 54800 nM
- GI50 (UO-31 renal): 1840 nM
- TGI (UO-31 renal): 7970 nM
- GI50 (SNB-19 CNS): 2910 nM
- TGI (SNB-19 CNS): 13300 nM
- GI50 (ACHN renal): 5150 nM
- TGI (ACHN renal): > 100000 nM
- GI50 (SNB-75 CNS): 2490 nM
- TGI (SNB-75 CNS): 6930 nM
- GI50 (HCC-2998 colon): 3870 nM
- TGI (HCC-2998 colon): 12400 nM
- GI50 (SK-MEL-5 melanoma): 948 nM
- TGI (SK-MEL-5 melanoma): 3220 nM
- GI50 (IGROV1 ovarian): 2530 nM
- TGI (IGROV1 ovarian): 6350 nM
- GI50 (SF-295 CNS): 3690 nM
- TGI (SF-295 CNS): > 100000 nM
- GI50 (MALME-3M melanoma): 3190 nM
- TGI (MALME-3M melanoma): 15000 nM
- GI50 (CCRF-CEM leukemia): 1930 nM
- TGI (CCRF-CEM leukemia): > 100000 nM
- GI50 (NCI-H522 lung): 1360 nM
- TGI (NCI-H522 lung): 4570 nM
- GI50 (MOLT-4 leukemia): 1270 nM
- TGI (MOLT-4 leukemia): 6620 nM
- GI50 (A549 NSCLC): 2690 nM
- TGI (A549 NSCLC): 19600 nM
- GI50 (U251 CNS): 3720 nM
- TGI (U251 CNS): > 100000 nM
- GI50 (NCI-H460 lung): 1870 nM
- TGI (NCI-H460 lung): 5300 nM
- GI50 (UACC-62 melanoma): 2520 nM
- TGI (UACC-62 melanoma): 19900 nM
- GI50 (A498 renal): 1510 nM
- TGI (A498 renal): 5780 nM
- GI50 (OVCAR-5 ovarian): 82000 nM
- TGI (OVCAR-5 ovarian): > 100000 nM
- GI50 (K-562 leukemia): 2070 nM
- TGI (K-562 leukemia): > 100000 nM
- GI50 (SF-268 CNS): 3840 nM
- TGI (SF-268 CNS): > 100000 nM
- GI50 (HOP-62 NSCLC): 5740 nM
- TGI (HOP-62 NSCLC): 64500 nM
- GI50 (SK-MEL-2 melanoma): 2730 nM
- TGI (SK-MEL-2 melanoma): 8310 nM
- GI50 (CAKI-1 renal): 2920 nM
- TGI (CAKI-1 renal): > 100000 nM
- GI50 (NCI/ADR-RES ovarian): 2100 nM
- TGI (NCI/ADR-RES ovarian): 33900 nM
- GI50 (BT-549 breast): 3820 nM
- TGI (BT-549 breast): 39900 nM
- GI50 (EKVX NSCLC): 1990 nM
- TGI (EKVX NSCLC): > 100000 nM
- GI50 (OVCAR-3 ovarian): 2800 nM
- TGI (OVCAR-3 ovarian): 18700 nM
